The values below come from ChEMBL document CHEMBL1828591, “Synthesis of antimitotic thioglycosides: in vitro and in vivo evaluation of their anticancer activity” (J Med Chem, 2011).

Active and inactive are the calls of the source. No cut-off for these calls is given here.

The subject of data set [1] is C6. Put plainly: Antitumor activity against rat C6 cells xenografted in nude mouse assessed as increase in choline-containing metabolite levels in tumor at 10 mg/kg, intratumorally administered for 14 days by 1H MAS NMR spectroscopy relative to control. On the set-up: dose 10 mg/kg. The data set is classed as functional, organism-based.
Data set [2] concerns C6. Put plainly: Antitumor activity against rat C6 cells xenografted in nude mouse assessed as increase in acetate levels in tumor at 10 mg/kg, intratumorally administered for 14 days by 1H MAS NMR spectroscopy relative to control. Set-up: dose 10 mg/kg. In kind it is functional, organism-based.
Data set [3] has as its system A549. Put plainly: Drug uptake in 10^6 human A549 cells at 15 uM after 48 hrs by UPLC-MS analysis. The data set is classed as ADME, cell-based. As to conditions: a549, 48 h.
Data set [4] concerns A549. Put plainly: Reduction in ganglioside GM2 content of human A549 cell extract at 15 uM after 48 hrs by UPLC-MS analysis. The data set is classed as functional, cell-based.
The subject of data set [5] is C6. Put plainly: Antitumor activity against rat C6 cells xenografted in nude mouse assessed as reduction in tumor size at 10 mg/kg, intratumorally administered for 14 days relative to control. In kind it is functional, organism-based. Set-up: dose 10 mg/kg.
The subject of data set [6] is A549. Put plainly: Antiproliferative activity against human A549 cells after 48 hrs by MTT assay. The data set is classed as functional. As to conditions: A549, 48 h, read-out: ID50 (the source's name). (In general: Tetrazolium dyes change colour on reduction, which living cells bring about.)
Data set [7] concerns A549. Put plainly: Elevation in lactosylceramide content of human A549 cell extract at 15 uM after 48 hrs by UPLC-MS analysis. The data set is classed as functional.
Data set [8] deals with A549. Put plainly: Reduction in ganglioside GM3 content of human A549 cell extract at 15 uM after 48 hrs by UPLC-MS analysis. In kind it is functional, cell-based.
Data set [9] deals with C6. Put plainly: Antitumor activity against rat C6 cells xenografted in nude mouse assessed as reduction in tumor size at 1 mg/kg, intratumorally administered for 14 days. The data set is classed as functional, organism-based. Set-up: dose 1 mg/kg.
Data set [10] concerns A549. Put plainly: Reduction in glucosylceramide content of human A549 cell extract at 15 uM after 48 hrs by UPLC-MS analysis. In kind it is functional, cell-based.
For data set [11], the system named is C6. Put plainly: Antiproliferative activity against rat C6 cells after 48 hrs by MTT assay. The data set is classed as functional. As to conditions: C6, 48 h, read-out: ID50 (the source's name).
For data set [12], the system named is C6. Put plainly: Antitumor activity against rat C6 cells xenografted in nude mouse assessed as increase in lactate levels in tumor at 10 mg/kg, intratumorally administered for 14 days by 1H MAS NMR spectroscopy relative to control. Set-up: dose 10 mg/kg. In kind it is functional, organism-based.
Data set [13] relates to C6. Put plainly: Antitumor activity against rat C6 cells xenografted in nude mouse assessed as reduction of creatine levels in tumor at 10 mg/kg, intratumorally administered for 14 days by 1H MAS NMR spectroscopy relative to control. The data set is classed as functional, organism-based. Set-up: dose 10 mg/kg.
Data set [14] is described as follows: Drug uptake in cyst of nude mouse xenografted with rat C6 cells assessed as formation of olelyl alcohol at 10 mg/kg, intratumorally administered for 8 days by 1H MAS NMR spectroscopy. As to conditions: in vivo, other, 192 h. In kind it is ADME, organism-based. Set-up: dose 10 mg/kg.
For data set [15], the system named is C6. Put plainly: Antitumor activity against rat C6 cells xenografted in nude mouse assessed as delay in tumor growth at 1 to 10 mg/kg, intratumorally administered for 8 days measured after 8 days relative to control. The data set is classed as functional, organism-based.
Data set [16] deals with C6. Put plainly: Antitumor activity against rat C6 cells xenografted in nude mouse assessed as reduction in tumor volume at 1 to 10 mg/kg, intratumorally administered for 8 days measured after 8 days relative to control. The data set is classed as functional, organism-based.
For data set [17], the system named is A549. Put plainly: Elevation in glucosylceramide content of human A549 cell extract at 15 uM after 48 hrs by UPLC-MS analysis. In kind it is functional, cell-based.
Data set [18] relates to N-acetyl-D-glucosaminidase. Put plainly: Stability of the compound in presence of Jack bean N-acetyl-D-glucosaminidase assessed as compound hydrolyzed to N-acetyl-D-glucosamine at 1 mM after 48 hrs by HPLC analysis. In kind it is ADME. The note with it: Jack bean N-acetyl-D-glucosaminidase (isolated enzyme), read-out: Activity.
A short description of data set [19]: Stability of the compound in presence of Jack bean N-acetyl-D-glucosaminidase at 1 mM after 48 hrs by HPLC analysis. The data set is classed as ADME. As to conditions: 1000 µM.

On to `CCCCCCCC/C=C\CCCCCCCCS[C@H]1O[C@H](CO)[C@@H](O)[C@H](O)[C@H]1NC(C)=O`, for which the outcome with C6 [1], in the data set on C6 [2], in the data set with A549 [4], in the data set with C6 [5], in the data set on A549 [8] and in the data set on C6 [12] was Active. In the data set with C6 [13], the outcome was Active. Also, in the data set with A549 [3], the Drug uptake amounted to 3675 pmol. For the same compound, the results for the IC50 with A549 [6] and in the data set with C6 [11] were 35 µM and 14 µM, respectively. This compound also displayed an Activity with A549 [7] of 40%. Further, the outcome in the data set with C6 [9] and in the data set with A549 [10] was inactive.
Turning to `CCCCCCCC/C=C\CCCCCCCCO[C@H]1O[C@H](CO)[C@@H](O)[C@H](O)[C@H]1NC(C)=O`, the Drug uptake entry in [14] was “Active”; with A549 [3], 2916 pmol. The result in the data set on A549 [4] and in the data set with A549 [8] was Active. The IC50 with A549 [6] worked out at 25 µM; in the data set with C6 [11], 16 µM. This compound also displayed an Activity in the data set with A549 [7] of 40%. The outcome with C6 [9], in the data set on C6 [15], with A549 [10] and in the data set with C6 [16] was inactive.
`CCCCCCCC/C=C\CCCCCCCCO[C@@H]1O[C@H](CO)[C@@H](O)[C@H](O)[C@H]1NC(C)=O` registered a Drug uptake in the data set with A549 [3] of 952 pmol. Further, the result with A549 [4] and in the data set on A549 [8] was Active. Moreover, the results for the IC50 in the data set with A549 [6] and in the data set with C6 [11] were 50 µM and 38 µM, respectively. The Activity with A549 [7] is listed as 40%. Besides, in the data set on A549 [17], the outcome was inactive. Moreover, in data set [18], the metabolised at 48 h, 1000 µM came out at 32%.
For `CCCCCCCC/C=C\CCCCCCCCS[C@@H]1O[C@H](CO)[C@@H](O)[C@H](O)[C@H]1NC(C)=O`, in the data set with A549 [3], the Drug uptake was determined as 3333 pmol. For the same compound, the outcome in the data set with A549 [4] and with A549 [8] was Active. The IC50 with A549 [6] worked out at 30 µM; in the data set on C6 [11] it was 26 µM. The same compound gave an Activity with A549 [7] of 40%. Moreover, the result in the data set with A549 [17] was inactive. Moreover, in [19], the Stability result is recorded as “Stable”.
